# Measured values as given in patent US9884863B2, “STAT3 inhibitor” (Board of Regents, The University of Texas System, priority 2013, dated 2018).
# Read-outs that look alike come from different tables or passages of the source.
# How the values were obtained:
# BxPc-3H = assay: MTS cell proliferation assay, BxPc-3H; assay type: cell-based; details: Homo sapiens; pancreatic cancer, 72 hrs; >10 = no effect; read-out: IC50 BxPc-3H (Table 1)
# Experimental: (§1) Cancer cells (breast cancer cell lines MCF-7, MDA-MB-361, SKBR3 and MDA-MB-231, pancreatic cancer cell lines AsPC-1. BxPC3 and Panc-1) were seeded in 96-well plates at a density of 1000-2000 cells/well and treated with DMSO, 0.01, 0.1, 1, 5, 10, and […] of STAT3 individual inhibitors for 72 hrs. Proliferation was measured by treating cells with the 3-(4,5-dimethylthiazol-2-yl)-5-(3-carboxymethoxyphenyl)-2-(4-sulfophenyl)-2H-tetrazolium) (MTS) in a CellTiter 96t AQueous Non-Radioactive Cell Proliferation Assay kit from Promega, Madison, Wis., USA). Absorbance of all wells was determined by measuring OD at 550 nm after 1 hr incubation at 37° C. on a 96-well iMark™ Microplate Absorbance Reader (BioRad, Hercules, Calif.). Each individual compound was tested in quadruplicate wells for each concentration, and the results were reported as mean absorption±s.e.
# MCF-7 = assay: MTS cell proliferation assay, MCF-7; assay type: cell-based, human
# Outline: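 MCF-7 human breast cancer cells were exposed to test compounds at a range of concentrations, then proliferation was measured with the MTS reagent from Promega's CellTiter 96 AQueous Non-Radioactive Cell Proliferation Assay kit. After 1 hr at 37° C., OD at 550 nm was read on a 96-well iMark Microplate Absorbance Reader, with quadruplicate wells per concentration.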
# AsPC1 = assay: MTS cell proliferation assay, AsPC1; assay type: cell-based, human; details: Homo sapiens
# Experimental: as §1
# (§2) In Vitro Determination of Effects of Synthesized Compounds on Cancer Cell Proliferation. Cancer cells (breast cancer cell lines MCF-7 and MDA-MB-231, pancreatic cancer cell lines AsPC-1 and Panc-1) were seeded in 96-well plates at a density of 2×10^3 cells/well and treated with DMSO, 0.01, 0.1, 1, 5, 10, and 100 μM of individual STAT3 inhibitors for 72 h. Proliferation was measured by treating cells with the 3-(4,5-dimethylthiazol-2-yl)-5-(3-carboxymethoxyphenyl)-2-(4-sulfophenyl)-2H-tetrazolium) (MTS) in a CellTiter 96t Aqueous Non-Radioactive Cell Proliferation Assay kit (Promega, Madison, Wis., USA). Absorbance of all wells was determined by measuring OD at 550 nm after 1 h incubation at 37° C. on a 96-well iMark™ Microplate Absorbance Reader (BioRad, Hercules, Calif.). Each individual compound was tested in quadruplicate wells for each concentration.
# MDA-MB-361 = assay: MTS cell proliferation assay, MDA-MB-361; assay type: cell-based; details: Homo sapiens, ER-positive breast cancer, 72 hrs, >10 = no effect, read-out: IC50 MDA-MB-361 (Table 1)
# Experimental: as §1
# MDA-MB-231 = assay: MTS cell proliferation assay, MDA-MB-231; assay type: cell-based, human; details: Homo sapiens
# Outline: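 Cells are exposed to DMSO or STAT3 inhibitors at 0.01-100 μM for 72 h, or at 1, 5 and 10 μM. Proliferation is read by MTS absorbance at 550 or 560 nm after 1 h at 37 °C. Each concentration is run in quadruplicate wells.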
# Panc-1 = assay: MTS cell proliferation assay, Panc-1; assay type: cell-based, human; details: Homo sapiens
# Experimental: as §1, §2
# SKBR3 = assay: MTS cell proliferation assay, SKBR3; assay type: cell-based; details: Homo sapiens, SK-BR-3; ER-negative breast cancer, 72 hrs; >10 = no effect; read-out: IC50 SKBR3 (Table 1)
# Experimental: as §1
# [1] = Homo sapiens, MCF7, 72 h; read-out: IC50 MCF-7 (Table 1)
# [2] = ASPC1, pancreatic cancer, 72 hrs, >10 = no effect, read-out: IC50 AsPC1 (Table 1)
# [3] = MDA-MB-231, ER-negative breast cancer, 72 hrs, >10 = no effect, read-out: IC50 MDA-MB-231 (Table 1)
# [4] = PANC-1, pancreatic cancer, 72 hrs, >10 = no effect, read-out: IC50 Panc-1 (Table 1)
# [5] = MCF-7, 48 hr, μM concentrations
# [6] = Homo sapiens, MCF7; Example 4 numbering, 72 h; >10 = no effect; read-out: IC50 MCF-7 (Table 4)
# [7] = ASPC1, Example 4 numbering, 72 h, >10 = no effect, read-out: IC50 AsPC1 (Table 4)
# [8] = MDA-MB-231, Example 4 numbering, 72 h, >10 = no effect, read-out: IC50 MDA-MB-231 (Table 4)
# [9] = PANC-1, Example 4 numbering, 72 h, >10 = no effect, read-out: IC50 Panc-1 (Table 4)
# [10] = Homo sapiens, MCF7, 72 h, read-out: IC50 MCF-7 (Table 1)
# [11] = ASPC1, 72 h, read-out: IC50 AsPC1 (Table 1)
# [12] = MDA-MB-231, 72 h, read-out: IC50 MDA-MB-231 (Table 1)
# [13] = PANC-1, 72 h, read-out: IC50 Panc-1 (Table 1)
Compound,IC50 (BxPc-3H) [µM],IC50 (MCF-7; [1]) [µM],IC50 (AsPC1; [2]) [µM],IC50 (MDA-MB-361) [µM],IC50 (MDA-MB-231; [3]) [µM],IC50 (Panc-1; [4]) [µM],IC50 (SKBR3) [µM],inhibition on breast cancer cell proliferation (FIG. 1) (MCF-7; [5]),also measured
"O=C(Nc1ccc([N+](=O)[O-])cc1Cl)c1cc(Cl)ccc1OC1CCNCC1 [HJC-1-25, 5-Chloro-N-(2-chloro-4-nitro-phenyl)-2-(piperidin-4-yloxy)benzamide]",0.27,0.25,2.76,0.18,0.29,0.54,0.28,significant inhibition,
N#C/C(=C\c1cccc(Br)n1)C(=O)Nc1ccc2c(c1)S(=O)(=O)C=C2 [Compound 10],,,,,,,,,IC50 (MCF-7; [6]): 3.31 µM; IC50 (AsPC1; [7]): 1.54 µM; IC50 (MDA-MB-231; [8]): 1.53 µM; IC50 (Panc-1; [9]): 1.64 µM
"O=C(Nc1ccc2c(c1)S(=O)(=O)C=C2)c1c2ccccc2nc2ccccc12 [HJC-1-41, Acridine-9-carboxylic acid (1,1-dioxo-1H-1λ^6-benzo[b]thiophen-6-yl)amide]",> 10,,,170,,,> 10,,IC50 (MCF-7; [10]): > 10 µM; IC50 (AsPC1; [11]): > 10 µM; IC50 (MDA-MB-231; [12]): > 10 µM; IC50 (Panc-1; [13]): > 10 µM
"O=C(Nc1ccc([N+](=O)[O-])cc1Cl)c1cc(Cl)ccc1OCCN1CCOCC1 [HJC-1-14, 5-Chloro-N-(2-chloro-4-nitro-phenyl)-2-(2-morpholin-4-yl-ethoxy)benzamide]",> 10,,,12.6,,,5.1,,IC50 (MCF-7; [10]): 9.87 µM; IC50 (AsPC1; [11]): 73.2 µM; IC50 (MDA-MB-231; [12]): 17.9 µM; IC50 (Panc-1; [13]): > 10 µM
"N#C/C(=C\c1cccc(Br)n1)C(=O)Nc1ccc2c(c1)S(=O)(=O)C=C2 [HJC-3-71, 3-(6-Bromo-pyridin-2-yl)-2-cyano-N-(1,1-dioxo-1H-1λ^6-benzo[b]thiophen-6-yl)-acrylamide]",,3.31,1.54,,1.53,1.64,,significant inhibition,
C[C@H](NC(=O)c1cc(Cl)ccc1O)c1ccccc1 [Compound 9],,,,,,,,,"IC50 (MCF-7; [6]): 0.9 µM; IC50 (MCF-7; Homo sapiens, MCF7; Example 4 numbering; read-out: IC50 MCF-7 (Example 4)): 0.9 µM; IC50 (AsPC1; [7]): 7.54 µM; IC50 (MDA-MB-231; [8]): 8.88 µM; IC50 (Panc-1; [9]): 8.44 µM"
O=C(Nc1ccc2c(c1)S(=O)(=O)C=C2)c1cc(Cl)ccc1O [Compd 12],,,,,,,,,IC50 (MCF-7; [6]): 0.91 µM; IC50 (AsPC1; [7]): 1.92 µM; IC50 (MDA-MB-231; [8]): 1.64 µM; IC50 (Panc-1; [9]): 2.34 µM
"NCCCCCOc1ccc(Cl)cc1C(=O)Nc1ccc([N+](=O)[O-])cc1Cl [HJC-3-89, 2-(5-Amino-pentyloxy)-5-chloro-N-(2-chloro-4-nitro-phenyl)benzamide]",,3.49,2.08,,3.1,4.67,,significant inhibition,
"Cc1ccc(S(=O)(=O)Nc2ccc3c(c2)S(=O)(=O)C=C3)cc1 [HJC-3-70, N-(1,1-Dioxo-1H-1λ^6-benzo[b]thiophen-6-yl)-4-methylbenzenesulfonamide]",,3.24,1.92,,2.66,2.89,,,
"NCCCOc1ccc(Cl)cc1C(=O)Nc1ccc([N+](=O)[O-])cc1Cl [HJC-3-8, 2-(3-Aminopropoxy)-5-chloro-N-(2-chloro-4-nitrophenyl)benzamide]",,3.11,4.2,,2.61,3.11,,significant inhibition,
"NCCCOc1ccc(Cl)cc1C(=O)Nc1ccc2c(c1)S(=O)(=O)C=C2 [HJC-4-16, 2-(3-Aminopropoxy)-5-chloro-N-(1,1-dioxo-1H-1λ^6-benzo[b]thiophen-6-yl)benzamide]",,1.76,0.27,,1.97,1.88,,significant inhibition,
C[C@H](NC(=O)c1cc(-c2ccccc2)nc2ccccc12)c1ccccc1 [Compound 8],,,,,,,,,IC50 (MCF-7; [6]): 2.24 µM; IC50 (AsPC1; [7]): > 10 µM; IC50 (MDA-MB-231; [8]): 86 µM; IC50 (Panc-1; [9]): > 10 µM
O=C(Nc1ccc2c(c1)S(=O)(=O)C=C2)c1cc(Cl)ccc1O [Compound 1],,,,,,,,,"IC50 (MCF-7; Homo sapiens, MCF7; Table 2 numbering 1-14; >10 = no effect; read-out: IC50 MCF-7 (Table 2)): 0.91 µM; IC50 (AsPC1; ASPC1, Table 2 numbering 1-14, read-out: IC50 AsPC1 (Table 2)): 1.92 µM; IC50 (MDA-MB-231; MDA-MB-231, Table 2 numbering 1-14, >10 = no effect, read-out: IC50 MDA-MB-231 (Table 2)): 1.64 µM; IC50 (Panc-1; PANC-1, Table 2 numbering 1-14, read-out: IC50 Panc-1 (Table 2)): 2.34 µM"

# Now from value to compound, other results behind:
IC50 (BxPc-3H) [µM],IC50 (MCF-7; [1]) [µM],IC50 (AsPC1; [2]) [µM],IC50 (MDA-MB-361) [µM],IC50 (MDA-MB-231; [3]) [µM],IC50 (Panc-1; [4]) [µM],IC50 (SKBR3) [µM],Compound,inhibition on breast cancer cell proliferation (FIG. 1) (MCF-7; [5]),also measured
> 10,> 10,> 10,14.9,> 10,> 10,16.1,"Nc1ccc(NC(=O)c2cc(Cl)ccc2O)c(Cl)c1 [HJC-1-29, N-(4-Amino-2-chloro-phenyl)-5-chloro-2-hydroxy-benzamide]",,
16.4,2.24,> 10,132,86,15.4,45.9,"C[C@H](NC(=O)c1cc(-c2ccccc2)nc2ccccc12)c1ccccc1 [HJC-1-28, 2-Phenyl-quinoline-4-carboxylic acid (1-phenyl-ethyl)amide]",,
7.26,0.9,7.54,6.39,8.88,8.44,6.51,"C[C@H](NC(=O)c1cc(Cl)ccc1O)c1ccccc1 [HJC-1-30, 5-Chloro-2-hydroxy-N-(1-phenyl-ethyl)benzamide]",significant inhibition,
200,> 10,> 10,> 10,> 10,> 10,42.4,"O=C(Nc1nnc(-c2ccco2)o1)c1cc(Cl)ccc1O [HJC-1-51, 5-Chloro-N-(5-furan-2-yl-[1,3,4]oxadiazol-2-yl)-2-hydroxybenzamide]",,
,3.15,2.05,,3.12,3.09,,"CNCCOc1ccc(Cl)cc1C(=O)Nc1ccc2c(c1)S(=O)(=O)C=C2 [HJC-4-28, 5-Chloro-N-(1,1-dioxo-1H-1λ^6-benzo[b]thiophen-6-yl)-2-(2-methylaminoethoxy)benzamide]",significant inhibition,
13.2,11.7,11.6,9.23,> 10,27.9,9.14,"CC(=O)Nc1ccc(NC(=O)c2cc(Cl)ccc2OC(C)=O)c(Cl)c1 [HJC-1-37, Acetic acid 2-(4-acetylamino-2-chloro-phenylcarbamoyl)-4-chlorophenyl ester]",,
> 10,> 10,> 10,43,> 10,0.84,> 10,"CS(=O)(=O)Nc1ccc(NC(=O)c2cc(Cl)ccc2O)c(Cl)c1 [HJC-1-31, 5-Chloro-N-(2-chloro-4-methanesulfonylamino-phenyl)-2-hydroxybenzamide]",,
